The values that follow come from ChEMBL document CHEMBL1201862, “PubChem BioAssay data set” (2004).

Structures are written as SMILES. Active and inactive are the calls of the source. Some results are limits rather than exact numbers.

The target of assay [1] is Dual specificity tyrosine-phosphorylation-regulated kinase 1A (Rattus norvegicus, UniProt Q63470). The format is biochemical, Homo sapiens.
In assay [2] the target is Protein disulfide-isomerase (Homo sapiens, UniProt P07237). The experiment in a line: PDI inhibitors, insulin aggregation turbidity, dose response, biochemical, absorbance, cherry-picked samples (AID 602350). The format is functional.
Chain of Protein disulfide-isomerase (P07237 whole entry): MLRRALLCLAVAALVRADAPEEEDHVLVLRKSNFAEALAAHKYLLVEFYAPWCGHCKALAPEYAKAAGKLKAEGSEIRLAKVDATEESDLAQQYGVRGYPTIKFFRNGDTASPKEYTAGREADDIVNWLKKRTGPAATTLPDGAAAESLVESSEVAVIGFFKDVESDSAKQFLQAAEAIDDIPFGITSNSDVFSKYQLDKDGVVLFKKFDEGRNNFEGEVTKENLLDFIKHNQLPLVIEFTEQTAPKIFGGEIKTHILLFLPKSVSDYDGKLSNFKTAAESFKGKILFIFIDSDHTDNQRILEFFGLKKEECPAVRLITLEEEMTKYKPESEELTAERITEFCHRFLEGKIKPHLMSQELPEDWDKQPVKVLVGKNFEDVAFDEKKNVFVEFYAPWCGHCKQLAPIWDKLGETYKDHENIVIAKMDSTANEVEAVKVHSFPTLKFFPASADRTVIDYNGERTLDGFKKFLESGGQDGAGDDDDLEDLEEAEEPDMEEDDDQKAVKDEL
Assay [3] has as its target T1, Insulin-degrading enzyme (Homo sapiens, UniProt P14735).
T1 sequence (P14735 whole entry): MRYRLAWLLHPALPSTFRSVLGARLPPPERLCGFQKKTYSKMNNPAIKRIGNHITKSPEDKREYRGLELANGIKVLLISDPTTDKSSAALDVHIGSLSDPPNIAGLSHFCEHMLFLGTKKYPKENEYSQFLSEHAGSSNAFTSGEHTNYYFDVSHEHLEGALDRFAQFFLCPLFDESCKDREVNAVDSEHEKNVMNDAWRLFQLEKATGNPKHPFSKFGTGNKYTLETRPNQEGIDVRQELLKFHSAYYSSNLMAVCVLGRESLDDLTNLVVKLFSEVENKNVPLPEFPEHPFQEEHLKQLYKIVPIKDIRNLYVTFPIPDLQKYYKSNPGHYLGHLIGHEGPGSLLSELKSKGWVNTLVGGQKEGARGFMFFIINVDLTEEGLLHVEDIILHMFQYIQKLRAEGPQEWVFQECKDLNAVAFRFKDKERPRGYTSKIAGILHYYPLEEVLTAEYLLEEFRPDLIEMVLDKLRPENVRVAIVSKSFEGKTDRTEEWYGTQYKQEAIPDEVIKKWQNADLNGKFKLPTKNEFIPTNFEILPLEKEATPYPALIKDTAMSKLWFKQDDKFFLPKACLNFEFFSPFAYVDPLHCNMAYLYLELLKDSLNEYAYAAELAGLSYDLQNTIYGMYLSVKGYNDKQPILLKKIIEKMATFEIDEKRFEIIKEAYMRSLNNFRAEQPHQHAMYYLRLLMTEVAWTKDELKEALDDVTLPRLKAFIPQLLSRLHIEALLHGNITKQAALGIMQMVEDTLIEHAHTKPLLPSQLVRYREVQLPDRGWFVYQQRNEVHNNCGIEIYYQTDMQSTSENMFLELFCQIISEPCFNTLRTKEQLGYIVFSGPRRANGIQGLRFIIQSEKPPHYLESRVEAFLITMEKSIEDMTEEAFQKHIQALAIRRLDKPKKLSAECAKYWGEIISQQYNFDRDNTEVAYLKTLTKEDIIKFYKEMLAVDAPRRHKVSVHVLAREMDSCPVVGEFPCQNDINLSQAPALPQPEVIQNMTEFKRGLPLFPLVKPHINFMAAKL
The experiment in a line: activators of recombinant IDE enzyme, dose response, counter-screen for IDE activator project, biochemical, fluorescence polarization (AID 588681). A general note: Counterscreens check selectivity or assay interference.

In assay [4] the target is T1, Insulin-degrading enzyme. In words: activators of endogenous IDE in HEK cells, dose response, cell-based, fluorescence polarization (AID 588439). The format is functional. In general terms: In fluorescence polarisation assays a small probe gives low polarisation when free and higher when bound to something large.
Assay [5] concerns HEK293. In words: HEK cell cytotoxicity by LDH release, dose response, cytotoxicity control for IDE activator project, fluorescence, HEK cells (AID 588440).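 Note: cytotoxicity by LDH release measuring loss of membrane integrity.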 To be noted: Homo sapiens. In kind it is functional, cell-based.
The subject of assay [6] is HEK293. In words: optical interference in Abeta FP readout, dose response, artefact control for IDE activator project, biochemical, fluorescence polarization (AID 588442). The format is functional, cell-based. To be noted: Homo sapiens.
The target of assay [7] is T2, Sentrin-specific protease 8 (Homo sapiens, UniProt Q96LD8).
T2 sequence (Q96LD8 whole entry): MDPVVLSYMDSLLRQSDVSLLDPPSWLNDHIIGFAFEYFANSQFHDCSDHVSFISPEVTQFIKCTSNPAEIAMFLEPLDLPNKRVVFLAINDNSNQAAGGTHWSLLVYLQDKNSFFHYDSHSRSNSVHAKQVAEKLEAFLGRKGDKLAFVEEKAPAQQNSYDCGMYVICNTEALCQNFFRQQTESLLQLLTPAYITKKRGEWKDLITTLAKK
The experiment in a line: SENP8 protease inhibitors, SAR follow-up, biochemical, luminescence (AID 504501). The format is functional.

In a further assay the target is T3, Caspase-3 (Homo sapiens, UniProt P42574).
T3 sequence (P42574 whole entry): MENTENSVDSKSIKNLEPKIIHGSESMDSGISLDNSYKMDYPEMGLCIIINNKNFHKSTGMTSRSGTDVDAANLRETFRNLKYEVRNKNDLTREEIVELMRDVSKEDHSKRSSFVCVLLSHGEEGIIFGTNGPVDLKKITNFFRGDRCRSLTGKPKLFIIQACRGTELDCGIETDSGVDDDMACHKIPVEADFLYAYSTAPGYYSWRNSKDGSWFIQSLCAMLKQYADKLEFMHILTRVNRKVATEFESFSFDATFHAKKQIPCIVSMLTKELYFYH
In words: SAR Analysis of small molecule inhibitors of Sentrin-specific proteases (SENPs) using a Caspase-3 Selectivity assay. [Related pubchem assays (depositor defined):AID2540, AID2599, AID434973, AID489001]. The format is functional.

In assay [8] the target is T4, Sentrin-specific protease 6 (Homo sapiens, UniProt Q9GZR1).
T4 sequence (Q9GZR1 whole entry): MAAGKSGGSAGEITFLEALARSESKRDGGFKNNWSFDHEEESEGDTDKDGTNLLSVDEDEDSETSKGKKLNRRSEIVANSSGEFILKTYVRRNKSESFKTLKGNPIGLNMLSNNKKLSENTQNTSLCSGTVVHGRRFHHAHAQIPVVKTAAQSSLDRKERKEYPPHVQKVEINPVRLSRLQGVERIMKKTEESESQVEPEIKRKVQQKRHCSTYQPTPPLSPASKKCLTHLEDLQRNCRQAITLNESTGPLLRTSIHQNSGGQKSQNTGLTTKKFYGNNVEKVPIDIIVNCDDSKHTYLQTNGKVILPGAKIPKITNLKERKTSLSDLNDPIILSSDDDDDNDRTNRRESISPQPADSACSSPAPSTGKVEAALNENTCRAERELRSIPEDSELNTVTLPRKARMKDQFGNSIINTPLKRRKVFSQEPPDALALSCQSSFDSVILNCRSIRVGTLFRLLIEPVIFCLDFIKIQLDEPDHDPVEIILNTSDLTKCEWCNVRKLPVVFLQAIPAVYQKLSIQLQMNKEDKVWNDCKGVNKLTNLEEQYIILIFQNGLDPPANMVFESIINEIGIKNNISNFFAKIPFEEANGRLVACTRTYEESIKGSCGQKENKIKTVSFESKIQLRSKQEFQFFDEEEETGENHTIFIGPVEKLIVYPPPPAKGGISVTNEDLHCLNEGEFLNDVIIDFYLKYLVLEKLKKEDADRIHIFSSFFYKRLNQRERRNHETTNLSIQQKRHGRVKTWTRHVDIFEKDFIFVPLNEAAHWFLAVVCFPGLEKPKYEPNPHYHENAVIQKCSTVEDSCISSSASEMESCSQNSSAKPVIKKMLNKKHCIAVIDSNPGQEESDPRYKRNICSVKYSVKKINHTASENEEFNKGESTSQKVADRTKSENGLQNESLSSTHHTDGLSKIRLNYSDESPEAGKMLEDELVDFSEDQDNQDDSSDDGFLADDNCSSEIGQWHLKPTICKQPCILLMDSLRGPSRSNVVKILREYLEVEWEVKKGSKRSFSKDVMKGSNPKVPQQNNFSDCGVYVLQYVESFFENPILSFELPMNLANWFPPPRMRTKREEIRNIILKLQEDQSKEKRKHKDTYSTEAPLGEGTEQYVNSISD
The experiment in a line: SAR Analysis of small molecule inhibitors of Sentrin-specific protease 6 (SENP6) using a Luminescent assay. [Related pubchem assays (depositor defined):AID2582, AID2599]. The format is functional.

Assay [9] concerns the target T5, Sentrin-specific protease 7 (Homo sapiens, UniProt Q9BQF6).
T5 sequence (Q9BQF6 whole entry): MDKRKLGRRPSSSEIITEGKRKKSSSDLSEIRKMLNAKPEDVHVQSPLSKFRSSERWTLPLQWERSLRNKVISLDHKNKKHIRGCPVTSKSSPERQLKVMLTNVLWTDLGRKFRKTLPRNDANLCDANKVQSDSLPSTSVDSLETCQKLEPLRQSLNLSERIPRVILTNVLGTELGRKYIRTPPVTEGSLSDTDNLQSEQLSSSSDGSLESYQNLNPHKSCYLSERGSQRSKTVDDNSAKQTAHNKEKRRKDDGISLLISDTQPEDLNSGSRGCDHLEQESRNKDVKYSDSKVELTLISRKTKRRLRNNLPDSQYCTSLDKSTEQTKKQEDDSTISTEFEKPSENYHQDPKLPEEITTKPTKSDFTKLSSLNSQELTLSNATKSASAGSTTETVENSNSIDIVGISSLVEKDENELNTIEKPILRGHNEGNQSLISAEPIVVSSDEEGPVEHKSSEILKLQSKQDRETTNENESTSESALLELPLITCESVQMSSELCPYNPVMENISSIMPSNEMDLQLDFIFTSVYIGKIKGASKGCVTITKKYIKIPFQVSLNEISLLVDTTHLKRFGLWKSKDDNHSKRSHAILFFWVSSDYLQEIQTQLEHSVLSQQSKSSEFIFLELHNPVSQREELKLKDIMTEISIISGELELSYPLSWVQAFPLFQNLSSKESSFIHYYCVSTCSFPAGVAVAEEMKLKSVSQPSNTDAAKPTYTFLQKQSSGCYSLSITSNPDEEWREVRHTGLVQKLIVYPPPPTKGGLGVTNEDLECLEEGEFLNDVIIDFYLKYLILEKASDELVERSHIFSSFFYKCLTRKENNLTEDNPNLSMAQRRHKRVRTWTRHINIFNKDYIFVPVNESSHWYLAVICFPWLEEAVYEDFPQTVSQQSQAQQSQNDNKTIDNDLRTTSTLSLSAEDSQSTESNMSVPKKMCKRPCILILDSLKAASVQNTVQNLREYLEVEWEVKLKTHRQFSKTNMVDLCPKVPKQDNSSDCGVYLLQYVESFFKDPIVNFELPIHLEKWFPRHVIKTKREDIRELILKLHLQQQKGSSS
In words: SENP7 protease inhibitors, SAR follow-up, biochemical, luminescence (AID 504497). The format is functional.

In assay [10] the target is Multidrug resistance protein CDR1 (Candida albicans, UniProt P43071). In words: CaCDR1 efflux pump inhibitors in yeast, dose response, S. cerevisiae AD1-8u, singleplex, Cherry Pick1 hits (AID 588606). In kind it is functional.
Chain of Multidrug resistance protein CDR1 (P43071 whole entry, looked up): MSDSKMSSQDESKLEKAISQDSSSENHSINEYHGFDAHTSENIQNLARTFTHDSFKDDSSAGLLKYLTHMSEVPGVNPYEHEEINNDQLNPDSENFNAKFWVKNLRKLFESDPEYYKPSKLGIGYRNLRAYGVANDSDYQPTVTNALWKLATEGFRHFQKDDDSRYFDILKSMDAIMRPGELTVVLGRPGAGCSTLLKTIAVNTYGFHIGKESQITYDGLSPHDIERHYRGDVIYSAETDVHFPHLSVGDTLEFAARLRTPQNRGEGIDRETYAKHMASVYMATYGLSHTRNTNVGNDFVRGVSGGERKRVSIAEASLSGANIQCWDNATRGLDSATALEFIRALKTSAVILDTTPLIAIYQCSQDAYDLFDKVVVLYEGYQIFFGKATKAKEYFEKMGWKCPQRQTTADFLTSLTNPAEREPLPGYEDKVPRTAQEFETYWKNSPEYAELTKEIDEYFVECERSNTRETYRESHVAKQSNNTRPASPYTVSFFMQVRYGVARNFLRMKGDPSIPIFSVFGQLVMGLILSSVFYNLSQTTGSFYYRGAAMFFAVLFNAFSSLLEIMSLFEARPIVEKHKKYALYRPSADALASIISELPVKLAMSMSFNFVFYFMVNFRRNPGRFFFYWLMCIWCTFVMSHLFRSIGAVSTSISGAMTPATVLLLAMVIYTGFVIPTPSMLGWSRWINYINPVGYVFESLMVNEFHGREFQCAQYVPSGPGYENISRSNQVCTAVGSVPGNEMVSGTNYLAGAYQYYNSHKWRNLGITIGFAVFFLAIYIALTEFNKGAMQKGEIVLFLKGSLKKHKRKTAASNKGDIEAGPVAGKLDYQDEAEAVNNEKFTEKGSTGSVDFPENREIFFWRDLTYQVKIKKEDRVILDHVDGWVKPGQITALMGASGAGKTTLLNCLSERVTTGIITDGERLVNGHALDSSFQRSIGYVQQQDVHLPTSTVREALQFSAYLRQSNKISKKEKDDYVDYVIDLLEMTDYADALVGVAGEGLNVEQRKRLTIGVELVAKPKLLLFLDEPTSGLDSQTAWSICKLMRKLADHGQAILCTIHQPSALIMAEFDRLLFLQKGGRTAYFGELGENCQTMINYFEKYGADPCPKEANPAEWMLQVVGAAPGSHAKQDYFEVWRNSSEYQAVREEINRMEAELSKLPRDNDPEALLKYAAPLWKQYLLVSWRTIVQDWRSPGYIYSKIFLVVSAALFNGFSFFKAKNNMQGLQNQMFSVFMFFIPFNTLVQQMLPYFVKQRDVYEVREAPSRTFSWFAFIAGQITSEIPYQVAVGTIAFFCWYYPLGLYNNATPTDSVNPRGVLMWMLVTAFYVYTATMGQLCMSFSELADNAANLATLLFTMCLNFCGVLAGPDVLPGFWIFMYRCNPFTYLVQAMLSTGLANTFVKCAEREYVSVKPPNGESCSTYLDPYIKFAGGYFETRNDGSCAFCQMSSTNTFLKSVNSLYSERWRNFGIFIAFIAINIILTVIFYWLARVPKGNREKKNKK
Assay [11] is described as follows: Luminescence Cell-Based Dose Retest to Confirm Inhibitors of Cancer Stem Cells. [Related pubchem assays (depositor defined):AID2717, AID2721]. The format is functional. To be noted: Homo sapiens.
Assay [12] deals with Serine/threonine-protein kinase D2 (Homo sapiens, UniProt Q9BZL6). In kind it is functional.
Chain of Serine/threonine-protein kinase D2 (Q9BZL6 whole entry): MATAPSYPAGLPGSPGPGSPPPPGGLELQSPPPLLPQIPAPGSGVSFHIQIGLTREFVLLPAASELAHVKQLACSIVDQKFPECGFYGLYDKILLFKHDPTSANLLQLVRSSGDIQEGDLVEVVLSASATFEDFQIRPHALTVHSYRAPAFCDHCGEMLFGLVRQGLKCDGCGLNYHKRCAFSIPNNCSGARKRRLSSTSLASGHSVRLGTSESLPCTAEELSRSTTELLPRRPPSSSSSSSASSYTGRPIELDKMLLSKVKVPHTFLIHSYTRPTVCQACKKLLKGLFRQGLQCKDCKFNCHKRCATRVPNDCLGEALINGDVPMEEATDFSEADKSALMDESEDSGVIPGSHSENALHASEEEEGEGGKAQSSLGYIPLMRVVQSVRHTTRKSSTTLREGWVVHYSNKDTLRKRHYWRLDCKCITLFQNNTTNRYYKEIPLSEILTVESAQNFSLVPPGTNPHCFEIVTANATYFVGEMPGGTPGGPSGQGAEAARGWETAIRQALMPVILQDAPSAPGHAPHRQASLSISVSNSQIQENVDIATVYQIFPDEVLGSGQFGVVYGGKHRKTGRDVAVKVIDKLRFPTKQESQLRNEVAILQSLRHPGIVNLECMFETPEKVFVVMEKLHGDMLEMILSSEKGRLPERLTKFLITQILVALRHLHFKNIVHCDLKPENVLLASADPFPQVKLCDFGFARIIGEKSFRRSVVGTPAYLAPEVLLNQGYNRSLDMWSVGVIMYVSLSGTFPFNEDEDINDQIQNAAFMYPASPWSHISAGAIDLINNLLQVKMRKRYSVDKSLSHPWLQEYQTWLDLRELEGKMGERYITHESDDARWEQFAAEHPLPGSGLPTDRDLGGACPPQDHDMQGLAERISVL
Assay [13] has as its target Serine/threonine-protein kinase TAO1 (Homo sapiens, UniProt Q7L7X3). In kind it is functional.
The nature of assay [14]: HeLa 2N DNA content increase, dose response, cell-based, IC50 (AID 1117349). In kind it is functional.
The nature of assay [15]: HeLa 4N DNA content increase, dose response, cell-based, IC50 (AID 1117351). The format is functional.

Chain of Serine/threonine-protein kinase TAO1 (Q7L7X3 whole entry): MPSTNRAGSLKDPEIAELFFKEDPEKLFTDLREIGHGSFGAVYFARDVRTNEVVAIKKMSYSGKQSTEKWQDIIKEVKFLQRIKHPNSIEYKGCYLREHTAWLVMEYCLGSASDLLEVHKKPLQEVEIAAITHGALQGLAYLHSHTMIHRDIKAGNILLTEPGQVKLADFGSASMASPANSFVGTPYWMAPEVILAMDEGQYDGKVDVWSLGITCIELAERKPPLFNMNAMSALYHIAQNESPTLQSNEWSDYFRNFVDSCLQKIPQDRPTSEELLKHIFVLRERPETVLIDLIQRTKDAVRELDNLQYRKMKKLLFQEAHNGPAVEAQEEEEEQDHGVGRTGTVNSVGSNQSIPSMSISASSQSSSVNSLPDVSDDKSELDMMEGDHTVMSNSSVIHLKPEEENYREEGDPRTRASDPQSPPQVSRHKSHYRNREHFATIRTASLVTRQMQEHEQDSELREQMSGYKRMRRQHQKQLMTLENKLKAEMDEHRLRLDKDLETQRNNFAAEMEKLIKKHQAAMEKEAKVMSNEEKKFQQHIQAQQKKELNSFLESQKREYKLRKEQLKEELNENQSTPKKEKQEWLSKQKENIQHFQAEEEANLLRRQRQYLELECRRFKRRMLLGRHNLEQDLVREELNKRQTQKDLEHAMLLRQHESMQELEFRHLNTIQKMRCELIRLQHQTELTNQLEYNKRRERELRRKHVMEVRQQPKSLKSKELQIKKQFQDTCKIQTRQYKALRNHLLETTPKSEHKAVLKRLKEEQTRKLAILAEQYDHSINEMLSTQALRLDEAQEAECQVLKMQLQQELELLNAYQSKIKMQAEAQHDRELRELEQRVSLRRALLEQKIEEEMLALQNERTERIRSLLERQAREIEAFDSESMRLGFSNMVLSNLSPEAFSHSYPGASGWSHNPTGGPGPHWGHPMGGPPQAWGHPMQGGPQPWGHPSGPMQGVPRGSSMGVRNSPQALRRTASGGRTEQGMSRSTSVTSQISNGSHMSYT

The term AC50 denotes the midpoint of the concentration-response curve, whichever way the signal moves. With `C[C@@H]1O[C@@H](OC[C@@H]2O[C@H](Oc3c(-c4ccc(O)cc4)oc4cc(O)cc(O)c4c3=O)[C@@H](O)[C@H](O)[C@H]2O)[C@H](O)[C@H](O)[C@H]1O`, the AC50 in [1] is 6.66 µM (active); in assay [2], 3.51 µM (active).
By EC50 is commonly meant the midpoint of the concentration-response curve. The IC50 is the concentration at which inhibition is half-maximal. In the case of `CCc1ccc(-c2nc(C[S+]([O-])CC(=O)O)c(C)o2)cc1` (stereo not given), the EC50 on Insulin-degrading enzyme [3] was > 54.7 µM (inactive); at Insulin-degrading enzyme [4], > 54.7 µM (inactive); with HEK293 [6], > 55.9 µM (inactive). For the same molecule, in the assay on HEK293 [5], the IC50 was > 89.2 µM (inactive).
On to `Cc1ccc(/C=C/c2nc(-c3ccc(NS(=O)(=O)c4cccs4)cc3)no2)cc1`, for which the IC50 (in [7]; on Caspase-3; in [8]; in assay [9]) was > 99 µM (inactive) in each case.
For `CCOc1ccc(NC(=O)CSc2nnc(Cc3cccn3C)n2-c2ccc(F)cc2)cc1`, the concentration giving a half-maximal response (EC50) in assay [10] was 0.013 µM (active).
On to `Cc1cccc(N2CCN(C(S)=Nc3ccc4nc(N5CCN(C)CC5)cc(C)c4c3)CC2C)c1` (stereo not given), for which, in [11], the AC50 is 7.58 µM (active). Also, the EC50 on Insulin-degrading enzyme [3], on Insulin-degrading enzyme [4] and in the assay on HEK293 [6] was > 54.7 µM (inactive) in each case. In the assay on HEK293 [5], the IC50 was 8.41 µM (active).
Usually Ki stands for a dissociation constant, usually derived from enzyme kinetics or from competition with a known ligand. Turning to `Clc1ccc(Nc2nnc(Cc3ccncc3)c3ccccc23)cc1` [VATALANIB], the values for the Ki in assay [12] and in assay [13] were > 10 µM (inactive) and > 7.94 µM (inactive), respectively. Moreover, the IC50 in [14] and in assay [15] was > 10 µM (inactive) throughout.
